Legend:
[1] = tested on: MCC (mouse primary cortical cultures); test: Cytotoxicity dose-response of EDOT monomer with PSS dopant (cell viability); format: cell-based; conditions: MCC exposed to as much as 0.01 M EDOT, 0.02M PSS for as long as 72 h
Experimental: (§1) Materials and Methods: SH-SY5Y neuroblastoma-derived cells were maintained in Dulbecco's Modified-Eagle's Media (DMEM with glucose, with L-glutamine; Gibco/Invitrogen, Carlsbad, Calif.) supplemented with Penn-Strep mixed antibiotic solution (dilute 1:100 in cell media; Gibco/Invitrogen) and 10% fetal bovine serum (FBS; Gibco/Invitrogen). Mouse primary dissociated cortical cultures (MCC) were prepared from embryonic day 18-20 (E18-20) mice. […]
(§2) Cell Viability Assays: Cell viability was assessed using three assays; the Vybrant Live/Dead Assay (Molecular Probes), the MTT cell viability assay (Chemicon, Temecula, Calif.), and immunocytochemistry (ICC) for the apoptosis associated protease, activated caspase 3 (Cell Signaling Technologies, Beverly, Mass.). For Vybrant Live/Dead assay cell quantity, size, and type of nuclear staining intensity were assessed by fluorescence microscopy using 3 different dyes, Hoechst 33342 (labels all cell nuclei but brighter in nuclei of apoptotic cells), YoPro-3 (labels apoptotic cells) and propidium iodide (PI) (labels cells with compromised membrane; apoptotic & necrotic cells). […]

[2] = tested on: SY5Y cells; test: as above; format: cell-based; conditions: SY5Y cells exposed to as much as 0.01 M EDOT, 0.02M PSS for as long as 72 h
Experimental: as §1, §2

c1scc2c1OCCO2 [EDOT, 3,4-ethylenedioxythiophene]
cell viability [1]: at least 75%
cell viability [2]: at least 75%
